Assay results: patent US8003847B2, “Non-human mutant mammals deficient in Sigma receptors and their applications” (Laboratorios Del Dr. Esteve, S.A., priority 2002, dated 2011)

Assays:
type-1 Sigma receptors = type-1 Sigma receptors (Homo sapiens, UniProt Q99720); details: type-1 Sigma receptor, result in words; cited from earlier work
type-2 Sigma receptors = type-2 Sigma receptors (Homo sapiens, UniProt Q5BJF2); details: type-2 Sigma receptor, result in words; cited from earlier work
mouse Sigma-1 receptor = assay: specific binding test to the [3H]-pentazocine ligand, brain membrane fraction; details: brain membranes of homozygous mutant (-/-) mice; 37° C., 130-170 minutes
Procedure: Fourthly, the activity (function) of the mouse Sigma-1 receptor was evaluated by a specific binding test to the [^3H]-pentazocine ligand. Briefly, the brains of mutant (−/−), heterozygous (+/−) and wild (+/+) mice were homogenised and the homogenisations ere centrifuged several times at different speeds to obtain the membrane fraction. Then samples of the membrane fraction obtained were incubated with the [^3H]-pentazocine radioligand in optimal binding conditions for this receptor (37° C., for 130-170 minutes), filtrating the samples, washing them and reading the radioactivity count present in the filtrate (see DeHaven-Hudkins D. L., Fleissner L. C., Ford-Rice, F. Y. (1992) Characterization of the binding of [3H]-Pentazocine to sigma recognition sites in guinea pigs brain. European Journal of Pharmacology 227:371-378, hereinafter DeHaven-Hudkins).

Sigma-1 receptor = Sigma-1 receptor (Mus musculus, UniProt O55242); details: in vivo
Procedure: Fifthly, the function of the Sigma-1 receptor was evaluated according to known behavioral paradigms and protocols.

type-1 Sigma receptors, sequence (Q99720 whole entry): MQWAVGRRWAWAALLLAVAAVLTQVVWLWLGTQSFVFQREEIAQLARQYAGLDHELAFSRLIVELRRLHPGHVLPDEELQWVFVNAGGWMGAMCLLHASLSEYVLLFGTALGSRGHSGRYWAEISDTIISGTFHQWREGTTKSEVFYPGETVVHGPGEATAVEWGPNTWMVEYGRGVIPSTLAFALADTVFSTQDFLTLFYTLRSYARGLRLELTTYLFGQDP
type-2 Sigma receptors, sequence (Q5BJF2 whole entry): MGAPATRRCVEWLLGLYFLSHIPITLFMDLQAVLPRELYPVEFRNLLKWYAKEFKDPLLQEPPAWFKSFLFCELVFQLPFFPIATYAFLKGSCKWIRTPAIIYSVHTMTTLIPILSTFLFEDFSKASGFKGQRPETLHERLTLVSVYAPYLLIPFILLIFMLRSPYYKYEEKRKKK
Sigma-1 receptor, sequence (O55242 whole entry): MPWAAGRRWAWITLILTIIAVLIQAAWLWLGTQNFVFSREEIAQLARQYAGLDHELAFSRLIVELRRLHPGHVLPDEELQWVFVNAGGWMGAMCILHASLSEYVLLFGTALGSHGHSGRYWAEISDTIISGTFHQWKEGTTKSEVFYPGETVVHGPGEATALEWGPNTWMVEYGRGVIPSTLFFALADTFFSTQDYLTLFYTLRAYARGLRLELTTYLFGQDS

Compound | affinity (type-1 Sigma receptors) | affinity (type-2 Sigma receptors) | other results
CC(C)=CCN1CCC2(C)c3cc(O)ccc3CC1C2C (single isomer, unassigned; (+)) [(+)-pentazocine] | high affinity | low affinity | 
[3H]c1cc2c(c([3H])c1O)[C@@]1(C)CCN(CC=C(C)C)[C@@H](C2)[C@H]1C [[^3H]-pentazocine] |  |  | specific binding of radioligand (activity/function of receptor) (mouse Sigma-1 receptor): lack of activity (function)
O=C(CCCN1CCC(O)(c2ccc(Cl)cc2)CC1)c1ccc(F)cc1 [haloperidol] |  | high to moderate affinity | 
C[C@@H]1CN(CCCn2c3ccccc3c3ccccc32)C[C@H](C)N1 [rimcazole] | high affinity |  | 
(+)-SKF10047 |  | low affinity | 
N-allylnormetazocine [SKF-10047] | high affinity |  | hyperactivity (hypermotility) response (Sigma-1 receptor): Statistically significant differences have only been observed with wild mice
